The results in this text go back to patent US12721892B2, “Methods and compositions for chimeric antigen receptor targeting cancer cells” (The University of North Carolina at Chapel Hill, priority 2019, dated 2026).

Data set [1] relates to Ca2+ influx in CAR-T cells. Description: Ca2+ influx assay after anti-CAR19 Ab stimulation. The following applies: stimulated with α-CAR19 antibody; FIG. 6. It is filed as cell-based, human. Here is the method: For Ca^2+ influx assays, T cells were incubated with Ca^2+ indicator as per manufacturer's instructions (Ca^2+ influx assay, BD Bioscience). Cells were incubated with anti-CAR19 Ab followed by goat anti-mouse secondary Ab on ice. Ca^2+ current was measured by flow cytometry for time-lapsed fluorescence change. Cells were first collected on ice as the baseline of the Ca^2+ current, and then activated at 37° C. for the Ca^2+ current during T cell activation.

For data set [2], the system named is CAR-CD3ζ phosphorylation. Description: Western blot of CAR-CD3ζ and proximal signaling phosphorylation. It is filed as cell-based, human. The procedure:
For western blot assays, protein lysate was normalized according to the amount of CAR expression and resolved on 4%-15% SDS polyacrylamide gel electrophoresis gels (SDS-PAGE, Bio-Rad). After protein transfer onto Polyvinylidene fluoride membranes (Bio-Rad), membranes were blocked in 5% non-fat milk in TBS-T and incubated with primary and secondary Abs in TBS-T with 1% milk. The following Abs were used: anti-CD3pY83 and anti-CD3pY142 (Abcam), anti-ZAP70pY319, anti-ZAP70, anti-LATpY191, anti-LAT, anti-LCK, anti-THEMIS, anti-SHP1 and anti-HA tag (Cell Signaling Technology), anti-CD3ζ, anti-FKBP, anti-β-actin (Santa Cruz), anti-FLAG (M2) (Sigma) and horseradish peroxidase conjugated secondary Abs (Goat-anti-mouse, Goat-anti-Rabbit from Thermo Scientific). Membranes were developed with SuperSignal West Femto Maximum Sensitivity Substrate (Thermo Scientific) on a Gel station (Bio-Rad).
(Immunoblotting shows a protein as a band on a membrane.)

The test system of data set [3] is CD19+ BV173 tumor cell line. The experiment in a line: Co-culture / stimulation with CD19+ BV173 tumor cells. Format: cell-based, human. The procedure:
(§1) For activation of CD19-specific CAR-T cells with the anti-idiotype Ab or CD19^+ tumor cells, anti-CAR19 and anti-CD3 Abs were serially diluted 2-fold, and coated on non-tissue culture treated 96-well plates for 16 hours. Plates were washed twice before plating T cells (2.5×10^5 cells/well). Plates were centrifuged at 1,000 g for 5 min, and incubated at 37° C. for 6 hours. Plates were then briefly spun, and 200 μl of the supernatant was collected for ELISA. Cells were collected and stained with anti-CAR19, CD4-PE, CD69-FITC Abs and Zombie Aqua™ dye (Biolegend) at 4° C. for 30 min. Samples were fixed and stored for flow cytometry analysis. For tumor cell-mediated activation, 5×10^4 BV173 tumor cells were seeded in each well of 96-well plates, and T cells were serially diluted and seeded. Six hours later, supernatant was collected for ELISA.
(§2) Cytokines in culture supernatants and plasma were measured using enzyme-linked immunosorbent assay (ELISA) or magnetic luminex assay following manufacturer's instructions (R&D Systems). Data were collected and analyzed using the Lumina-200 System and the Bio-Plex Manager 6.1 software (Bio-Rad).
For co-culture assays, CD19^+ BV173 tumor cells were seeded into 24-well plates with 5×10^5 cells/well and T cells were added at different effector to target (E:T) ratios (E:T=1:1 or 1:5). After 24 hours, supernatant was collected for ELISA. Three days later, cells were collected and stained with anti-human CD3 and CD19 Abs for flow cytometry analysis.

The nature of data set [4]: Humanized mouse CRS model of SHP1 heterodimerization. Format: in vivo, humanized NSG mice. The source says:
For the humanized mouse model to evaluate the effects of SHP1 heterodimerization in CAR-T cells in vivo, humanized NSG (NOD-scid IL2Rg^null) mice (NSG-hu HSC) were generated. Briefly, human fetal liver tissues were obtained from elective or medically indicated termination of pregnancy through a non-profit intermediary working with outpatient clinics (Advanced Bioscience Resources). CD34^+ hematopoietic stem cells (HSC) were transplanted in newborn NSG mice through intra-liver injection of 2×10^5 purified HSC. Human immune cell engraftment was detected by flow cytometry 12 weeks after transplantation. Standard parameters of evaluation of CRS in humanized NSG mice was performed. Mice were infused with 5×10^6 CAR-T cells at day 0, and plasma was collected at days 1 and 2. AP21967 was administrated intraperitoneally at 10 mg/kg dose. Weight of each mouse was normalized to starting weight before CAR-T cell infusion. In a second CRS murine model, 7-10-week-old female C.B-Igh-1b/GbmsTac-Prkdc^scid-Lyst^bgN7 (SCID-beige, Taconic Biosciences) mice were injected i.p. with Raji-FFluc cells. After 21 days, mice were grouped based on the BLI (total flux). Mice were infused i.p. with 30×10^6 CAR-T cells. Weight of each mouse was normalized to starting weight before CAR-T cell infusion.

Data set [5] relates to Daudi-FFLuc cells. Description: NSG xenograft lymphoma model of SHP1 heterodimerization. Format: in vivo, NSG mice. Here is the method: Animal studies were performed in accordance with the Institutional Animal Care and Use Committee of UNC. For long-term in vivo cytotoxicity, male or female NSG (NOD-scid IL2Rg^null) mice were injected intravenously (i.v.) with 2×10^6 CD19^+ Daudi tumor cell line labeled with the Firefly luciferase gene (Daudi-FFLuc). Four to seven days later, mice received T cells control or expressing CARs intravenously (i.v.). For tumor re-challenging experiments, 2×10^6 CD19^+ Daudi-FFLuc cells were i.v. injected at indicated time point. Tumor growth was monitored every 2-3 days by injecting mice intraperitoneally (i.p.) with D-luciferin (150 mg/kg, Xenolight, PerkinElmer). Photon emission was analyzed using the Xenogen-IVIS Imaging System. For short-term in vivo T cell activation, NSG mice were injected with Daudi-FFLuc cells i.v. Two weeks later, CAR19.28ζ-Ts were labeled with Cell-trace Violet (Thermo Scientific) and CAR19.BBζ-Ts were labeled with CFSE (Thermo Scientific) as per manufacturer's instructions. Cells were mixed 1:1, and a total 1×10^7 cells were i.v. injected in each mouse. Peripheral blood, bone marrow, lung and spleen were harvested 6 hours after T cell injection, dissociated into single cells and stained with anti-human CD45-PE, CD3-APC and CD69-PE-Cy7 Abs. […] Tumor growth was monitored twice a week.

The test system of data set [6] is CD69 expression and cytokine release of CAR-T cells. The experiment in a line: Activation of CAR-T cells with anti-CAR19 anti-idiotype Ab (CD69 expression, cytokine release). It is filed as cell-based, human. Here is the method: as §1, §2
Where [7] appears, read: transient AP21967, FIGS. 21B-21C.

“Also recorded” adds a separate entry of the source.

For the molecule “LCK: full-length human LCK, FLAG-tagged, overexpressed in CAR-T cells”, the “Ca2+ influx with LCK overexpression” value in data set [1] is “increasing; also recorded: correspondingly increased”. Further, the “CAR-CD3ζ phosphorylation in CAR19.28ζ-Ts with LCK overexpression” value in data set [2] (FIG. 5) is “enhanced”. Besides, in data set [2] (day 10 of in vitro expansion, three donors, FIG. 5), the “Basal CAR-CD3ζ phosphorylation in CAR19.BBζ-T cells with LCK overexpression” value is given as “increasing; also recorded: dramatically increased CAR-CD3ζ phosphorylation of CAR19.BBζ to a comparable level as CAR19.28ζ”.
Turning to `CO[C@H]1[C@@H](O)[C@H](C)C[C@H](C)/C=C/C=C/C=C(\C)[C@@H](c2c[nH]c3c(C)cccc23)C[C@@H]2CC[C@@H](C)[C@@](O)(O2)C(=O)C(=O)N2CCCC[C@H]2C(=O)O[C@H]([C@H](C)C[C@@H]2CC[C@@H](O)[C@H](OC)C2)C[C@H](O)[C@H](C)/C=C(\C)[C@H]1O` [AP21967], the “Antitumor activity in vitro” value in data set [3] (CAR19.28ζ-T cells with FKBP-SHP1, BV173 co-culture) was “without compromising their antitumor activity in vitro”. For the same molecule, the “IFNγ release / production” value in data set [3] (CAR19.28ζ.FRB-T cells with FKBP-SHP1 and BV173 at 1:5 ratio, FIGS. 17 and 18) was “reduces IFNγ release by CAR19.28ζ-T cells in a reversible manner; also recorded: reversible regulation of IFNγ production”. Moreover, the Cytotoxicity result in data set [3] (FKBP-SHP1 co-expressed, FIG. 17) is on record as “controlled cytotoxicity”. In addition, the “CAR-CD3ζ phosphorylation upon antigen binding” value in data set [2] (CAR19.28ζ.FRB-T cells co-transduced with FKBP-SHP1, 1 μM AP21967, FIG. 16) is reported as “tunes down CAR-CD3ζ phosphorylation upon antigen binding”. For the same molecule, in data set [2] (FKBP-SHP1 co-expressed, FIG. 16), the “Antigen-independent CAR-CD3ζ phosphorylation of CAR19.28ζ-Ts” value is on record as “reduce antigen-independent CAR-CD3ζ phosphorylation”. Besides, in data set [4] (AP21967 twice on day 1, 10 mg/kg intraperitoneally, FIG. 21A), the Weight loss entry is on record as “alleviated their weight loss”. For the same molecule, the “Therapeutic effect of CAR19.28ζ-T cells in vivo” value in data set [4] (cell counts on day 21, FIG. 21D) was “did not impair the therapeutic effect”. Moreover, in data set [4] (setting [7]), the “Release in the plasma of human GM-CSF” value is on record as “significantly reduced”, the “Release in the plasma of human IFNγ” value was “significantly reduced”, the “Release in the plasma of human IL-6” value is on record as “significantly reduced” and the “Release in the plasma of human TNFα” value is listed as “significantly reduced”. The “IFNγ release in vivo (plasma)” value in data set [5] (AP21967 twice on day 2, 10 mg/kg intraperitoneally, FIG. 20A) is “reduced IFNγ release by CAR19.28ζ-T cells co-expressing SHP1”. Moreover, the “Antitumor effects in vivo” value in data set [5] (AP21967 twice on day 2, tumor growth days 7-39, FIG. 20B) was “without impairing their antitumor effects”.
Turning to CD8α-wt: wild type CD8α, the “Basal CAR-CD3ζ phosphorylation in CD4+ T cells co-expressing CAR.19.BK” value in data set [2] (co-expression of CD8α construct, FIG. 2D top) is reported as “increased”.
`CC(C)(C)n1nc(-c2ccc(Cl)cc2)c2c(N)ncnc21` [PP2]: the “Responsiveness of CAR19.28ζ-T cells to CAR crosslinking (CD69, IFNγ and IL-2) after PP2 pretreatment” value in data set [6] (10 μM PP2 for 16 hours, low doses of anti-CAR19 antibody, FIG. 2B) was “reduced their responsiveness to CAR crosslinking with low doses of anti-CAR19 antibody to similar levels of CAR19.BBζ-T cells”. In addition, the “PP2-mediated inhibition in CAR19.28ζ-T cells at high doses of anti-CAR19 antibody” value in data set [6] (10 μM PP2 pretreatment, high doses of anti-CAR19 antibody) is listed as “partially overcame”. In data set [2] (inhibitor at 10 μM for 16 hours, FIG. 2A), the “CAR-CD3ζ basal phosphorylation of CAR19.28ζ-T cells on addition of kinase inhibitor” value is on record as “abrogated”.
Consider `[Na+].[Na+].[Na+].[O]=[V]([O-])([O-])[O-]` [Na3 VO4], for which the “Antigen-independent phosphorylation of CAR-CD3ζ in CAR19.BBζ-T cells” value in data set [2] (200 μM phosphatase inhibitor, FIG. 2E) was “promoted”.
